Reference: patent US10456379B2, “Imidazole-based antimicrobial agents” (priority 2014, dated 2019)
In brackets after ≈: the same amount, converted by molar mass. Like-named read-outs stand apart in the source and are kept apart here.

Columns and labels:
[1] = system: Streptococcus pneumoniae (Chester, ATCC49619); assay: Broth microdilution MIC assay, Streptococcus pneumoniae; format: cell-based; conditions: for Antibacterial activity Streptococcus pneumoniae: MIC class score, MIC100, broth microdilution; for MIC: Streptococcus pneumoniae, ATCC49619, read-out: Antibacterial activity, SP (Streptococcus pneumoniae), MIC class
[2] = system: vancomycin-resistant Enterococcus faecalis (ATCC51575); assay: microbe, parasite or virus in culture; format: cell-based; conditions: ATCC51575; vancomycin-resistant Enterococcus faecalis; read-out: Antibacterial activity, VREFs (vancomycin-resistant EFs), MIC class
[3] = system: daptomycin-resistant Staphylococcus aureus (from MRSA COL); assay: Broth microdilution MIC assay, daptomycin-resistant MRSA; format: cell-based; conditions: 24 h, read-out: Antibacterial activity, MRSA strains with additional resistance, D (daptomycin), MIC class
[4] = system: Staphylococcus epidermidis (PCI 1200, ATCC12228); assay: Broth microdilution MIC assay, Staphylococcus epidermidis; format: cell-based; conditions: read-out: Antibacterial activity, SE (Staphylococcus epidermidis), MIC class
[5] = system: Staphylococcus aureus MRSA (COL); assay: Broth microdilution MIC assay, Staphylococcus aureus MRSA (COL); format: cell-based; conditions: for MIC: Staphylococcus aureus, MRSA, read-out: Antibacterial activity, MRSA (Staphylococcus aureus MRSA), MIC class; for Antibacterial activity Staphylococcus aureus (MRSA): MIC class score, MIC100, broth microdilution, COL strain
[6] = system: Mycobacterium smegmatis (mc(2)155); assay: Broth microdilution MIC assay, Mycobacterium smegmatis
[7] = system: Enterococcus faecalis (ATCC29212); assay: Broth microdilution MIC assay, Enterococcus faecalis; format: cell-based; conditions: read-out: Antibacterial activity, EFs (Enterococcus faecalis), MIC class
[8] = system: vancomycin-resistant Enterococcus faecium (ATCC51559); assay: microbe, parasite or virus in culture; format: cell-based
[9] = system: Enterococcus faecium (AGR15, ATCCBAA-2127); assay: Broth microdilution MIC assay, Enterococcus faecium; format: cell-based; conditions: ATCCBAA2127, read-out: Antibacterial activity, EFm (Enterococcus faecium), MIC class
[10] = system: platensimycin-resistant Staphylococcus aureus (from MRSA COL); assay: Broth microdilution MIC assay, platensimycin-resistant MRSA; format: cell-based; conditions: 24 h, read-out: Antibacterial activity, MRSA strains with additional resistance, P (platensimycin), MIC class
[11] = system: Staphylococcus aureus MSSA (Newman); assay: Broth microdilution MIC assay, Staphylococcus aureus MSSA (Newman); format: cell-based; conditions: for Antibacterial activity Staphylococcus aureus (MSSA): MIC class score, MIC100, broth microdilution, Newman strain
[12] = system: MRSA (COL) resistant to triclosan; assay: Broth microdilution MIC assay, triclosan-resistant MRSA; conditions: Staphylococcus aureus, read-out: Antibacterial activity, MRSA strains with additional resistance, T (triclosan), MIC class
[13] = ATCC51559, vancomycin-resistant Enterococcus faecium, read-out: Antibacterial activity, VREFm (vancomycin-resistant EFm), MIC class

`Cc1[nH]c(-c2ccc(-c3cccc(Cl)c3Cl)o2)nc1-c1ccccc1` [compound 2] was tested, and the “Antibacterial activity Streptococcus pneumoniae” value [1] was 3 (MIC100 of 2-5 μg/ml), the MIC [2] was 20 to 50 µg/mL (≈ 54.2 to 135 µM) and the MIC [3] was 3 to 10 µg/mL (≈ 8.12 to 27.1 µM).

With `Cc1[nH]c(-c2ccc(-c3ccccc3Cl)o2)nc1-c1ccccc1` [compound 3] the MIC [1] was < 1 µg/mL, the MIC [4] was 11 to 20 µg/mL (≈ 32.9 to 59.7 µM) and the MIC [5] was 11 to 20 µg/mL (≈ 32.9 to 59.7 µM).

With `Cc1[nH]c(-c2ccc(-c3ccccc3F)s2)nc1-c1ccccc1` [compound 15] the “Antibacterial activity, MS (Mycobacterium smegmatis), MIC class” value [6] was 2 (MIC100 of 11-20 μg/ml).

With `Cc1nc(-c2ccc(-c3ccc(Cl)cc3Cl)o2)[nH]c1-c1ccc(F)cc1` [compound 16] the MIC [1] was 2 to 5 µg/mL (≈ 5.16 to 12.9 µM), the MIC [2] was 20 to 50 µg/mL (≈ 51.6 to 129 µM) and the MIC [7] was 20 to 50 µg/mL (≈ 51.6 to 129 µM). The MIC [8, 13] was 20 to 50 µg/mL (≈ 51.6 to 129 µM).

In the case of `Cc1[nH]c(-c2ccc(-c3ccccc3C(F)(F)F)o2)nc1-c1ccccc1` [compound 17], the “Antibacterial activity Streptococcus pneumoniae” value [1] is reported as 3 (MIC100 of 2-5 μg/ml), the MIC [1] is reported as 2 to 5 µg/mL (≈ 5.43 to 13.6 µM) and the MIC [9] is reported as 20 to 50 µg/mL (≈ 54.3 to 136 µM).

With `Cc1[nH]c(-c2ccc(-c3ccccc3OC(F)(F)F)o2)nc1-c1ccccc1` [compound 18] the “Antibacterial activity Streptococcus pneumoniae” value [1] was 3 (MIC100 of 2-5 μg/ml), the MIC [1] was 2 to 5 µg/mL (≈ 5.2 to 13 µM) and the MIC [9] was 20 to 50 µg/mL (≈ 52 to 130 µM). It also gave an MIC [2] of 20 to 50 µg/mL (≈ 52 to 130 µM), an MIC [7] of 20 to 50 µg/mL (≈ 52 to 130 µM) and an MIC [8, 13] of 20 to 50 µg/mL (≈ 52 to 130 µM).

`Cc1nc(-c2ccc(-c3ccccc3OC(F)(F)F)o2)[nH]c1-c1cccc(Cl)c1` [compound 21] was tested, and the MIC [2] was 20 to 50 µg/mL (≈ 47.8 to 119 µM), the MIC [10] was 3 to 10 µg/mL (≈ 7.16 to 23.9 µM) and the MIC [7] was 20 to 50 µg/mL (≈ 47.8 to 119 µM). For the same compound, the MIC [8, 13] was 20 to 50 µg/mL (≈ 47.8 to 119 µM), the “Antibacterial activity Staphylococcus aureus (MSSA)” value [11] was 3 (MIC100 of 3-10 μg/ml) and the MIC [12] was 3 to 10 µg/mL (≈ 7.16 to 23.9 µM). For the same compound, the “Antibacterial activity Staphylococcus aureus (MRSA)” value [5] was 3 (MIC100 of 3-10 μg/ml) and the MIC [5] was 3 to 10 µg/mL (≈ 7.16 to 23.9 µM).

`Cc1nc(-c2ccc(-c3ccccc3C(F)(F)F)o2)[nH]c1-c1cccc(Cl)c1` [compound 22] was tested, and the “Antibacterial activity Streptococcus pneumoniae” value [1] was 3 (MIC100 of 2-5 μg/ml), the MIC [1] was 2 to 5 µg/mL (≈ 4.97 to 12.4 µM) and the “Antibacterial activity Staphylococcus aureus (MSSA)” value [11] was 2 (MIC100 of 11-20 μg/ml). It also gave an MIC ([11]; Staphylococcus aureus, read-out: Antibacterial activity, MSSA (Staphylococcus aureus MSSA), MIC class) of 11 to 20 µg/mL (≈ 27.3 to 49.7 µM).

`Cc1[nH]c(-c2ccc(-c3ccccc3OC(F)(F)F)o2)nc1-c1ccc(F)cc1` [compound 23, 4-(4-Fluoro-phenyl)-5-methyl-2-[5-(2-trifluoromethoxy-phenyl)-furan-2-yl]-1H-imidazole] showed an MIC [9] of 20 to 50 µg/mL (≈ 49.7 to 124 µM), an MIC [2] of 20 to 50 µg/mL (≈ 49.7 to 124 µM) and an MIC [7] of 20 to 50 µg/mL (≈ 49.7 to 124 µM). For the same compound, the MIC [8, 13] was 20 to 50 µg/mL (≈ 49.7 to 124 µM).

With `Cc1nc(-c2ccc(-c3ccccc3OC(F)(F)F)o2)[nH]c1-c1ccc(Br)cc1` [compound 29] the “Antibacterial activity Streptococcus pneumoniae” value [1] was 3 (MIC100 of 2-5 μg/ml), the MIC [1] was 2 to 5 µg/mL (≈ 4.32 to 10.8 µM) and the “Antibacterial activity Staphylococcus aureus (MRSA)” value [5] was 2 (MIC100 of 11-20 μg/ml).

`Cc1[nH]c(-c2ccn(-c3ccccc3C(F)(F)F)c2)nc1-c1ccccc1` [compound 33] showed an MIC [1] of 6 to 10 µg/mL (≈ 16.3 to 27.2 µM) and an MIC [4] of 11 to 20 µg/mL (≈ 29.9 to 54.4 µM).

`Cc1[nH]c(-c2cc(C)n(-c3cccc(C(F)(F)F)c3)c2C)nc1-c1ccccc1` [compound 36] was tested, and the MIC [1] was 2 to 5 µg/mL (≈ 5.06 to 12.6 µM) and the “Antibacterial activity Staphylococcus aureus (MRSA)” value [5] was 2 (MIC100 of 11-20 μg/ml).

`Cc1nc(-c2ccc(-c3cccc(OC(F)(F)F)c3)o2)[nH]c1-c1ccc(F)cc1` [compound 37] was tested, and the MIC [1] was < 1 µg/mL, the MIC [2] was 20 to 50 µg/mL (≈ 49.7 to 124 µM) and the MIC [7] was 20 to 50 µg/mL (≈ 49.7 to 124 µM). The MIC [8, 13] was 20 to 50 µg/mL (≈ 49.7 to 124 µM) and the “Antibacterial activity, MS (Mycobacterium smegmatis), MIC class” value [6] was 2 (MIC100 of 11-20 μg/ml).

With `Cc1[nH]c(-c2ccc(-c3cccc(C(F)(F)F)c3)o2)nc1-c1ccc(F)cc1` [compound 38] the “Antibacterial activity Streptococcus pneumoniae” value [1] was 3 (MIC100 of 2-5 μg/ml), the MIC [1] was 2 to 5 µg/mL (≈ 5.18 to 12.9 µM) and the MIC [7] was 20 to 50 µg/mL (≈ 51.8 to 129 µM). The MIC ([8]; Enterococcus faecium, ATCC51559, read-out: Antibacterial activity, VREFm (vancomycin-resistant EFm), MIC class) was 20 to 50 µg/mL (≈ 51.8 to 129 µM).

`Cc1[nH]c(-c2ccc(-c3ccc(Cl)c(C(F)(F)F)c3)o2)nc1-c1ccccc1` [compound 39] was tested, and the MIC [1] was < 1 µg/mL, the MIC [2] was 20 to 50 µg/mL (≈ 49.7 to 124 µM) and the MIC [7] was 20 to 50 µg/mL (≈ 49.7 to 124 µM). For the same compound, the MIC [8, 13] was 20 to 50 µg/mL (≈ 49.7 to 124 µM).

Work on `Cc1nc(-c2ccc(-c3ccc(Cl)c(OC(F)(F)F)c3)o2)[nH]c1-c1ccccc1` [compound 41] yielded an MIC [2] of 20 to 50 µg/mL (≈ 47.8 to 119 µM), an MIC [4] of 11 to 20 µg/mL (≈ 26.3 to 47.8 µM) and an MIC [7] of 20 to 50 µg/mL (≈ 47.8 to 119 µM). It also gave an MIC [8, 13] of 20 to 50 µg/mL (≈ 47.8 to 119 µM).

For `Cc1[nH]c(-c2ccc(-c3ccc(Cl)c(C(F)(F)F)c3)o2)nc1-c1ccc(F)cc1` [compound 42], the MIC [9] was 20 to 50 µg/mL (≈ 47.5 to 119 µM), the MIC [2] was 11 to 20 µg/mL (≈ 26.1 to 47.5 µM) and the MIC [7] was 11 to 20 µg/mL (≈ 26.1 to 47.5 µM). The MIC [8, 13] was 20 to 50 µg/mL (≈ 47.5 to 119 µM).

`Cc1nc(-c2ccc(-c3ccc(Cl)c(OC(F)(F)F)c3)o2)[nH]c1-c1ccc(F)cc1` [compound 43] was tested, and the MIC [7] was 20 to 50 µg/mL (≈ 45.8 to 114 µM) and the “Antibacterial activity Staphylococcus aureus (MRSA)” value [5] was 2 (MIC100 of 11-20 μg/ml).
